# Assay results: paper PMC12057341, “In vitro pharmacokinetic/pharmacodynamic modeling of the effect of mucin on polymyxin B activity against Acinetobacter baumannii” (Antimicrobial Agents and Chemotherapy, 2025)
# Where a SMILES comes first, the peptide text is derived from it. Bridges are numbered along the chain shown (N, C = ends). [ ]: non-standard residue; d: D form. The star is where a group is joined. X1 = CC[C@H](C)CCCCC(=O)*; Dab = NCC[C@H](N)C(=O)O
# Legend:
# [1] = tested on: Acinetobacter baumannii AB121-D0; assay: PMB MIC in CAMHB with or without 1% mucin, AB121-D0; type: cell-based
# Experimental: (§1) Two clinical MDR strains of A. baumannii, isolated from a patient before (AB121-D0) and 12 days after treatment with colistin (AB122-D12), were used during this study ([32]). AB122-D12 carries a 10 amino acid insertion into the pmrB gene, known to confer PMB resistance.
# (§2) PMB MICs of both A. baumannii strains were determined in commercial CAMHB (BioMérieux, Marcy-l’Etoile, France) according to the European Committee on Antimicrobial Susceptibility Testing and Clinical and Laboratory Standards Institute (CLSI) recommendations ([33], [34]). PMB MICs of the two A. baumannii isolates were also determined at least in duplicate in CAMHB supplemented with 1% of mucin.
# [2] = tested on: Acinetobacter baumannii AB122-D12; assay: PMB MIC in CAMHB with or without 1% mucin, AB122-D12; type: cell-based
# Experimental: as §1, §2
# [3] = tested on: Acinetobacter baumannii AB122-D12; assay: MIC at the end (T30h) of TK experiments after regrowth, AB122-D12; type: cell-based
# Experimental: as §2
# Samples were centrifuged (8 minutes at 8,000 rpm); then, the supernates were removed, and the pellets were stored at −80°C in CAMHB-glycerol 20%. A minimum bacterial density of ~10^5 CFU/mL in samples collected at the end of TK experiments was required for MIC susceptibility testing and sequencing.
# Prior to MIC testing, the isolates were streaked onto a drug-free Mueller-Hinton agar plate and incubated for 24 h.
# [4] = assumed for TK modeling, as previously shown; cited from earlier work
# Description: Bacterial counts obtained from TK experiments without mucin were first modeled using NONMEM 7.4 (ICON plc, Dublin, Ireland) with the Laplacian algorithm and the M3 method for handling observations below the limit of quantification ([39]). PMB was assumed to be stable over the course of the experiment as previously shown ([40]). A previously described model with hetero-resistance ([41]), that is, two bacterial subpopulations, one susceptible to PMB (S) and one resistant (R), was used to describe the time course of bacterial counts for the two A. baumannii strains (Fig. 1). Different functions w ...
# [5] = CAMHB + 1% mucin, unbound MIC = MIC x fu
# [6] = MIC with 1% mucin corrected by fu
smiles,measurement,setting,value
"CC[C@H](C)CCCCC(=O)N[C@@H](CCN)C(=O)N[C@H](C(=O)N[C@@H](CCN)C(=O)N[C@H]1CCNC(=O)[C@H]([C@@H](C)O)NC(=O)[C@H](CCN)NC(=O)[C@H](CCN)NC(=O)[C@H](CC(C)C)NC(=O)[C@@H](Cc2ccccc2)NC(=O)[C@H](CCN)NC1=O)[C@@H](C)O [PMB, polymyxin B] (X1-[Dab]T[Dab][Dab][Dab][dF]L[Dab][Dab]T; lactam 4-C)",MICu (corrected by fu),[1]; [5],13 mg/L
same,MICu ratio in the presence and absence of mucin,[1]; [6],13
same,Fold increase of MIC in the presence of 1% mucin compared to CAMHB,[1]; total concentrations,64 fold
same,MICu (corrected by fu),[2]; [5],628 mg/L
same,MICu ratio in the presence and absence of mucin,[2]; [6],20
same,Fold increase of MIC in the presence of 1% mucin compared to CAMHB,[2]; total concentrations,32 fold
same,MIC fold-change vs control of respective replicate,"[3]; TK in CAMHB + 1% mucin, PMB 48 mg/L, replicate 2, lpxA Ser224Pro",4
same,MIC fold-change vs control of respective replicate,"[3]; TK in CAMHB + 1% mucin, PMB 135 mg/L, replicate 3, ISAba13 insertion in the promoter of lpxC",8
same,MIC fold-change vs control of respective replicate,"[3]; TK in CAMHB + 1% mucin, PMB 135 mg/L, replicate 4, ISAba13 insertion in the promoter of lpxC",4
same,MIC fold-change vs control of respective replicate,"[3]; TK in CAMHB, PMB 16 mg/L, replicate 1, lpxA Arg258Leu",4
same,MIC fold-change vs control of respective replicate,"[3]; TK in CAMHB, PMB 128 mg/L, replicate 1, lpxA Trp206Arg Thr210Ala",2
same,MIC fold-change vs control of respective replicate,"[3]; TK in CAMHB, PMB 128 mg/L, replicate 2, lpxA Trp206Arg Thr210Ala",0.25
same,Regrowth samples at T30h with ≥fourfold increase in MIC compared with control,"[3]; TK in the absence of mucin, 2/18 samples",11%
same,Regrowth samples at T30h with ≥fourfold increase in MIC compared with control,"[3]; TK in the presence of mucin, 5/26 samples",19%
same,Cases of regrowth associated with an increase in the MIC at T30h,[3]; with and without mucin together,16%
same,Stability over the course of the experiment,[4],stable
